Tests used:
LMWH = assay: Neutralization of LMWH in human plasma measuring factor Xa (chromogenic Coatest Heparin); format: biochemical; settings: LMWH and antidote 0.4 μg/mL each, human plasma 15 min 37°C
Procedure: Activated partial thromboplastin time (aPTT) and anti-Xa activity were measured on the freshly isolated plasma using respectively a coagulometer (BCT; Dade Behring—Siemens) and a Microplate reader (Anthos HT3, type 12600). STA-C.K. Prest*2 kit was used. Coatest kit was used to evaluate the concentration of low molecular weight heparin in blood plasma following the reactions depicted below: LMW Heparin+AT→[LMW Heparin·AT] [LMW Heparin·AT]+FXa(excess)→[LMW Heparin·AT·FXa] 2a. S-2222+FXa→Peptide+pNA (yellow)+FXa(residual) 2b. […]
(§1) The assay method was calibrated using standard solutions that contain 0.1 μg/mL of AT and heparin at concentrations ranging from 0.01 to 0.07 μg/mL in buffer/normal human plasma supplied with the Coatest kit. […] The absorbance was measured at 405 nm. The ability of CLC1 and CLC2 to neutralize the anticoagulant activity of heparin was determined by addition of each polymer to heparin solution, and the assay performed as described above.
The complexation of the synthetic polymers of formula (I) with low molecular weight heparin (LMWH) was assessed in vitro in the same experimental conditions as for UFH, thus using a concentration of heparin and polymers of formula (I) of 0.4 μg/mL. After their incubation of 15 minutes at 37° C., the remaining activity of factor Xa is recorded with the chromogenic assay Coatest Heparin.

UFH [1] = assay: Dose-response UFH neutralization in whole human blood, aPTT test; format: biochemical; settings: Table 4, UFH 2 μg/mL whole blood
Procedure: In Example 9 several (co-)polymers of formula (I) were tested for neutralization of UFH in whole blood. Dose-response curves were established adopting a fixed concentration of 2 μg/mL UFH added in whole blood collected on sodium citrate. Five minutes after this preconditioning step, UFH neutralization was conducted by adding one of the (co-)polymers listed in Table 4 to 6. The concentration of these polymers was varied from 0.5 to 4 μg/mL in—whole blood. A special care was taken during the addition of the (co-)polymer solution in view to assure a rapid and reproducible homogenization of this solution in whole blood (rapid injection of solution in whole blood, i.e. in less than 1 s), followed directly by 3 up-and-down aspirations to avoid any risk of local over-concentrations. The total dilution arising from the UHF and polymer solutions represents only 10% to avoid any interference with coagulation pathways.
After a 15 minutes incubation period performed at 37° C. under lateral agitation the aPTT test was carried out immediately afterwards in order to determine the residual UFH activity. […] The mean and standard deviations were calculated from two independent experiments performed on senior blood donors initially collected under sodium citrate.

UFH [2] = assay: Neutralization of UFH in whole blood of patients heparinized in vivo (extracorporeal circulation), aPTT test; format: biochemical, human
Procedure: In example 10, several (co-)polymers of formula (I), namely two linear homopolymers of PDMAEMA (samples CS023 and CK169) and two copolymers of PDMAEMA and PEO (samples A61 and BA003) were tested for neutralization of UFH injected on human patients subjected to ExtraCorporeal Circulation (ECC) during a cardiovascular surgical operation. According to the general practice in this clinical context, a fixed dose of 3 mg/kg of UFH is administrated to these patients by intravenous injection.
10 min after this dose injection of UFH, 40 ml of whole blood were collected from the patients. In vitro UFH neutralization was conducted less than 1 hour after blood collection adding one of the (co-)polymers listed in Table 7. The concentration of these polymers ranged from 3.4 to 45 μg/mL in whole blood. A special care was taken during the addition of (co-)polymer solutions in view to ensure a rapid and reproducible homogenization of these (co-)polymers in whole human blood (rapid injection of the solution in whole human blood, i.e. in less than 1 s), followed directly by 3 up-and-down aspirations to avoid any risk of local over-concentrations.
After a 15 minutes incubation period performed at 37° C. under lateral agitation the aPTT test was carried out immediately in order to determine the residual UFH activity. The neutralization effectiveness of the different homopolymers and copolymers and of protamine was estimated from the determination of CMax, i.e. the minimal polymer concentration giving rise to a maximum neutralization of UFH. Therapeutic index (Thind) of the (co-)polymers was established as the drug concentration window giving a pharmacological effect without impairing the coagulation pathways. The mean and standard deviations corresponding to these 3 parameters were calculated from 4 independent experiments performed on senior blood patients.

UFH [3] = assay: Neutralization of UFH in human plasma, aPTT test; format: biochemical; settings: for percentage of neutralization of UFH, mean: antidote 2 μg/mL, plasma spiked with UFH 2 μg/mL, 15 min 37°C
Procedure: (§2) Activated partial thromboplastin time (aPTT) and anti-Xa activity were measured on the freshly isolated plasma using respectively a coagulometer (BCT; Dade Behring—Siemens) and a Microplate reader (Anthos HT3, type 12600). STA-C.K. Prest*2 kit was used. Coatest kit was used to evaluate the concentration of low molecular weight heparin in blood plasma following the reactions depicted below: LMW Heparin+AT→[LMW Heparin·AT] [LMW Heparin·AT]+FXa(excess)→[LMW Heparin·AT·FXa] 2a. S-2222+FXa→Peptide+pNA (yellow)+FXa(residual) 2b.
All PECs were prepared by addition of 100 μL of heparin (10 μg/mL) to 300 μL of plasma. After a pre-incubation of 5 minutes at 37° C., 100 μL of a stock solution of polymers of formula (I) (10 μg/mL) was added to neutralize heparin. After 15 minutes of interaction 37° C. the aPTT analysis was performed. Anti Xa analysis was evaluated according to a similar procedure, except for the final concentrations of heparin and polymer of formula (I) which were […].
In view to assess the pharmacological activity of the polymers of formula (I) to neutralize the action of UFH, polymers of formula (I) were incubated in normal human plasma previously spiked with heparin, analysing afterwards the remaining coagulation activity of plasma using the activated partial thromboplastin time (aPTT) test. This bioassay was indeed typically used to analyse the functionality of the intrinsic pathway of the blood coagulation, using kaolin as synthetic activator of the coagulation. An incubation of 15 min at 37° C. was respected before measuring the aPPT test. The percentage of heparin neutralization in plasma (FIG. 4) was calculated using two different calibration curves of heparin in function of the group age of the donors. Indeed a difference in heparin sensitivity was noticed with aPPT test as a function of the range of age of human donors. Accordingly, two calibration curves of heparin were used, corresponding to the two categories of blood donors: group 1 (average age: 22 years) and group 2 (average age: 52 years).

UFH [4] = assay: Neutralization of UFH in human plasma measuring factor Xa (chromogenic Coatest Heparin); format: biochemical; settings: UFH and antidote 0.4 μg/mL, human plasma 15 min 37°C
Procedure: as §2
Where FXa represents factor Xa and S-2222 represents Bz-Ile-Glu-(γ-OR)-Gly-Arg-pNA (CA: 59068-47-2) (SEQ ID No. 1), a chromogenic substrate cleaved by free FXa to peptide (Bz-Ile-Glu-(γ-OR)-Gly-Arg (SEQ ID No. 2)) and pNA (p-nitroaniline). AT represents antithrombin. Heparin binds to AT, causing a change in the conformation of AT to a form that binds to and sequesters the activity of FXa. Addition of a peptide that competes with AT for heparin will increase the concentration of free FXa. Thus, restoration of the activity of FXa, as indicated by the amount of S-2222 converted to peptide and pNA, provides a measure of the ability of a peptide to neutralize the anticoagulant activity of heparin (provided in technical sheet of Instrumentation Laboratory).
as §1, with “kit. The standard solutions were incubated at 37° C. for 3-4 minutes, after which 100 μL of bovine factor Xa (0.71 nkat) were added to 200 μL of each standard solution. The mixtures were incubated at 37° C. for 30 sec, after which 200 μL of S-2222 (0.2 μmol, 37° C.) were added and the reaction mixtures were incubated at 37° C. for exactly 3 minutes.” for “kit.”, “above. […]” for “above.”

UFH [5] = assay: Dose-response curve for UFH neutralization in human blood plasma, aPTT bioassay; format: biochemical; settings: UFH 2 μg/mL in plasma, polymer 1 to 3 μg/mL
Procedure: In view to assess a possible difference in affinity between polymers of formula (I) and heparin versus protamine/heparin, dose-response curves were established, corresponding to a progressive titration of heparin action by increasing concentration of the polymers of formula (I) with aPPT bioassay (FIG. 5). This in vitro study was conducted adopting a fixed plasma concentration of UFH of 2 μg/mL added before the incubation with the polymers of formula (I). The concentration of the polymers of formula (I) was varied from 1 to 3 μg/mL. The mean and standard deviations (SD) were calculated from two independent experiments performed on senior blood donors.

Substance: Protamine
- percentage of inhibition of factor Xa (inhibition of heparin), mean (LMWH): 31.0%
- CMax (UFH [1]; minimal polymer concentration giving saturation in UFH neutralization): 3.00 µg/mL
- IC50 (UFH [1]; polymer concentration leading to 50% of maximal capacity to neutralize UFH): 1.05 µg/mL
- aPTT at CMax (UFH [2]; blood of patients given 3 mg/kg UFH): 42.7 s
- CMax (UFH [2]; minimal polymer concentration giving maximum neutralization of UFH, patients given 3 mg/kg UFH): 22.5 µg/mL
- aPTT response (UFH [2]; protamine concentration of 45 μg/mL): below 70 s
- percentage of neutralization of heparin (UFH [3]; 15 minutes after addition of the polymers, human plasma (FIG. 4)): 75%
- percentage of neutralization of UFH, mean (UFH [3]; Group 1 donors (average age 22 years)): 75.0%
- percentage of neutralization of UFH, mean (UFH [3]; Group 2 donors (average age 52 years)): 76.1%
- percentage of inhibition of factor Xa, mean (UFH [4]; Test number 1): 88.1%
- percentage of inhibition of factor Xa, mean (UFH [4]; Test number 2): 100.0%
- mean inhibition of factor Xa (UFH [4]; mean of two independent experiments): 94.0%
- concentration at the maximum of the heparin neutralization curve (UFH [5]): around 1.6 μg/mL

Reference: patent US9616089B2, “Polymeric synthetic antidote” (Universite de Liege, priority 2013, dated 2017)
